Key:
DOHH-2 = test: Combination study, ATPLite 72 h, dose matrix (Synergy Score, CI50); settings: combination with Compound 1, 72 h
Farage = test: as above; settings: combination with Compound 1; Farage; 72 h
Procedure: (§3) Cells are thawed from a liquid nitrogen preserved state. Once cells have been expanded and divide at their expected doubling times, screening begins. Cells are seeded in growth media in either black 1536-well or 384-well tissue culture treated plates. Cells are then equilibrated in assay plates via centrifugation and placed in incubators attached to the Dosing Modules at 37° C. for 24 hours before treatment. […] These Tzero (To) plates are read using ultra-sensitive luminescence on Envision plate readers (Perkin Elmer). Treated assay plates are incubated with compound for 72 hours. After 72 hours, plates are developed for endpoint analysis using ATPLite. All data points are collected via automated processes, quality controlled and analyzed using Zalicus software.
where T is treated cell count and V is untreated (vehicle) cell count (at 72 hours). I ranges from 0% (when T=V) to 100% (when T=0). […] The measure of effect in the experiment can be the inhibition of cellular response relative to the untreated level (vehicle alone). […] The inhibition ranges from 0% at the untreated level to 100% when T=0. Inhibition levels are negative for agents that actually increase levels. Other effect measures, such as an activity ratio r=T/V may be more appropriate for some assays. When activity ratios (e.g, fold increase over stimulated control) are being used, the effect can be measured using an induction 1=ln(T/V). With this definition, all effect expressions are the same as for inhibition.
(§4) Growth Inhibition (GI) is used as a measure of cell viability. […] A GI reading of 100% represents complete growth inhibition—T72 compound-treated and T0 vehicle signals are matched. […] A GI reading of 200% represents complete death of all cells in the culture well. Compounds reaching an activity plateau of GI 200% are considered cytotoxic. GI is calculated by applying the following test and equation:
(§5) Combination analysis data were collected in a 6×6 dose matrix. Synergy is calculated by comparing a combination's response to those of its single compound, against the drug-with-itself dose-additive reference model. Deviations from dose additivity may be assessed visually on an isobologram or numerically with a Combination Index (CI). […] Additive effect is CI=1.0. […] Antagonistic effect is CI>1.0.
The isobologram was drawn by identifying the locus of concentrations that correspond to crossing the indicated inhibition level. This is done by finding the crossing point for each single agent concentration in a dose matrix across the concentrations of the other single agent. Practically, each vertical concentration CY is held fixed while a bisection algorithm is used to identify the horizontal concentration CX in combination with that vertical dose that gives the chosen effect level in the response surface Z(CX,CY). These concentrations are then connected by linear interpolation to generate the isobologram display. For synergistic interactions, the isobologram contour fall below the additivity threshold and approaches the origin, and an antagonistic interaction would lie above the additivity threshold. The error bars represent the uncertainty arising from the individual data points used to generate the isobologram. The uncertainty for each crossing point is estimated from the response errors using bisection to find the concentrations where Z−αZ(CX,CY) and Z+σZ(CX,CY) cross Icut, where αZ is the standard deviation of the residual error on the effect scale.
(§6) To measure combination effects in excess of Loewe additivity, a scalar measure to characterize the strength of synergistic interaction termed the Synergy Score is devised. The Synergy Score is calculated as:
The fractional inhibition for each component agent and combination point in the matrix is calculated relative to the median of all vehicle-treated control wells.

DOHH2 = test: Compound 1 with dexamethasone, CellTiter-Glo viability 72 h, combination index; format: cell-based; settings: combination with Compound 1; DOHH2 cells; CellTiter-Glo 72 h; FIG. 11
Procedure: (§1) The effects of Compound 1 with dexamethasone were examined in a panel of cell lines. Cells were cultured and assayed as follows. Compound 1 was serially diluted with cell culture medium and various DMSO concentrations. The top concentration of Compound 1 exposed to cells was 3 uM for cell lines other than WSU-NHL and DOHH2. For WSU-NHL and DOHH2 cell lines, the top concentration of Compound 1 exposed to the cells was 0.3 uM. Dexamethasone was serially diluted in culture media and phosphate buffered saline (PBS). The top concentration of dexamethasone used on cells was 3 uM. Cells were at least 73% viable and were counted and diluted for plating at a density of about 92,000 cell/mL, 130 uL cells per well in 96 well plates for SUDHL6, Karpas 422, SUDHL4, WSU-NHL, RL, and DOHH2 cell lines. The SUDHL10 cell line was plated at a density of about 46,000 cells/mL, 130 uL cells per well in 96 well plates.
(§2) Various concentrations of Compound 1 and various combinations of dexamethasone were added to various wells of cells. Single agents (Compound 1 or dexamethasone alone) were also added to some wells of cells. Cells were incubated with compounds for 72 hours. To assay for effects of the compounds on cell viability, a CellTiter-Glo® luminescent cell viability assay (commercially available) was used. To each plate of cells, 100 uL CellTiter-Glo reagent was added, incubated, and luminescence quantified using a […].
The results for cell line DOHH2 are depicted in FIG. 11 and Table 11. […] Table 11 depicts combination index (CI) values for different combinations of dexamethasone/Compound 1 concentrations.

SUDHL6 = test: as above; format: cell-based; settings: combination with Compound 1; SUDHL6 cells; CellTiter-Glo 72 h; FIG. 12
Procedure: as §1, §2
The result for cell line SUDHL6 is depicted in FIG. 12 and in Table 12. […] Table 12 depicts combination index (CI) values for different combinations of dexamethasone/Compound 1 concentrations.

SU-DHL-10-epst = test: Combination study, ATPLite 72 h, dose matrix (Synergy Score, CI50); settings: combination with Compound 1, 72 h
Procedure: as §3
The measure of effect in the experiment can be the inhibition of cellular response relative to the untreated level (vehicle alone). […] The inhibition ranges from 0% at the untreated level to 100% when T=0. Inhibition levels are negative for agents that actually increase levels.
as §4, §5, §6
The fractional inhibition for each component agent and combination point in the matrix is calculated relative to the median of all vehicle-treated control wells. The Synergy Score equation integrates the experimentally-observed activity volume at each point in the matrix in excess of a model surface numerically derived from the activity of the component agents using the Loewe model for additivity. Additional terms in the Synergy Score equation (above) are used to normalize for various dilution factors used for individual agents and to allow for comparison of synergy scores across an entire experiment. The inclusion of positive inhibition gating or an Idata multiplier removes noise near the zero effect level, and biases results for synergistic interactions at that occur at high activity levels.
Loewe Volume (Loewe Vol) is used to assess the overall magnitude of the combination interaction in excess of the Loewe additivity model. Loewe Volume is particularly useful when distinguishing synergistic increases in a phenotypic activity (positive Loewe Volume) versus synergistic antagonisms (negative Loewe Volume). […] This model defines additivity as a non-synergistic combination interaction where the combination dose matrix surface should be indistinguishable from either drug crossed with itself. The calculation for Loewe additivity is:

KARPAS-422 = test: as above; settings: combination with Compound 1, 72 h

C[C@@H]1C[C@H]2[C@@H]3CCC4=CC(=O)C=C[C@]4(C)[C@@]3(F)[C@@H](O)C[C@]2(C)[C@@]1(O)C(=O)CO [dexamethasone, (8S,9R,10S,11S,13S,14S,16R,17R)-9-Fluoro-11,17-dihydroxy-17-(2-hydroxyacetyl)-10,13,16-trimethyl-6,7,8,9,10,11,12,13,14,15,16,17-dodecahydro-3H-cyclopenta[a]phenanthren-3-one]
CI50 growth inhibition (DOHH-2): S (S=0.01 to <0.5)
CI50 inhibition (DOHH-2): T (T=0.5 to <0.7)
Synergy Score growth inhibition (DOHH-2): A3 (A3=>3)
Synergy Score inhibition (DOHH-2): A3 (A3=>3)
CI50 growth inhibition (Farage): U (U=0.7 to <1)
CI50 inhibition (Farage): T (T=0.5 to <0.7)
Synergy Score growth inhibition (Farage): A3 (A3=>3)
Synergy Score inhibition (Farage): A3 (A3=>3)
synergy of the combination (DOHH2): synergy
synergy of the combination (SUDHL6): synergy
CI50 growth inhibition (SU-DHL-10-epst): S (S=0.01 to <0.5)
CI50 inhibition (SU-DHL-10-epst): S (S=0.01 to <0.5)
Synergy Score growth inhibition (SU-DHL-10-epst): A3 (A3=>3)
Synergy Score inhibition (SU-DHL-10-epst): A3 (A3=>3)
CI50 growth inhibition (KARPAS-422): U (U=0.7 to <1)
CI50 inhibition (KARPAS-422): U (U=0.7 to <1)
Synergy Score growth inhibition (KARPAS-422): A3 (A3=>3)
Synergy Score inhibition (KARPAS-422): A3 (A3=>3)
